# Measurements reported in publication PMC7778552, “A Double-Edged Sword: The Anti-Cancer Effects of Emodin by Inhibiting the Redox-Protective Protein MTH1 and Augmenting ROS in NSCLC” (Journal of Cancer, 2021).
# Target: T1, MutT homolog 1 (MTH1) (Homo sapiens, UniProt P36639)
# T1 construct: gene NUDT1; N-terminal His-tagged, expressed in E. coli BL21-codon plus
# Assay: SPR with immobilized purified MTH1 (amine coupling)
# Assay type: binding
smiles,measurement,value
"Cc1cc(O)c2c(c1)C(=O)c1cc(O)cc(O)c1C2=O [emodin, 1,3,8-trihydroxy-6-methylanthraquinone]",Kd,22.2 ± 0.68 µM
